The conditions of series [1]: cancer patients; intravenous bolus 1 nanogram/kg.
From the text: The average dosages for Cerulitide were from 0.5 nanograms/kg body weight (i.v.) to 300 nonograms/kg body weight (intramusculary), depending upon the treated pains, as set forth in the following examples.

Read-outs that look alike come from different tables or passages of the source. Square brackets hold non-standard residues; d marks the D form. Peptide text beside a SMILES is read from it. sY = N[C@@H](Cc1ccc(OS(=O)(=O)O)cc1)C(=O)O; pGlu = O=C1CC[C@@H](C(=O)O)N1

For the molecule `CSCC[C@H](NC(=O)[C@H](Cc1c[nH]c2ccccc12)NC(=O)CNC(=O)[C@@H](NC(=O)[C@H](Cc1ccc(OS(=O)(=O)O)cc1)NC(=O)[C@H](CC(=O)O)NC(=O)[C@H](CCC(N)=O)NC(=O)[C@@H]1CCC(=O)N1)[C@@H](C)O)C(=O)N[C@@H](CC(=O)O)C(=O)N[C@@H](Cc1ccccc1)C(N)=O` [Ceruletide] ([pGlu]QD[sY]TGWMDF-NH2), the Side-effects entry (intramuscular 0.05 micrograms/kg, first injection) was “None”; the Side-effects result (intramuscular 0.1 micrograms/kg) is “None and Burning sensation at the injection site and pain sensation at the injection site”; the Side-effects result (second intramuscular injection 0.05 micrograms/kg) was “None”; the Side-effects entry in series [1] is listed as “None”.

For the origin of these results see patent US4351829A, “Use of polypeptides as analgesic drugs” (Farmitalia Carlo Erba Spa, priority 1980, dated 1982).
